{"source": "patent US20250375450A1", "about": "“SMARCA2/4 INHIBITION AS A STRATEGY TO TREAT TUMORS THAT HARBOR ABERRANT BAF ASSEMBLIES” (BOARD OF REGENTS, THE UNIVERSITY OF TEXAS SYSTEM, priority 2022, published 2025)", "key": {"[1]": {"tested_on": "Ewing's sarcoma (EW13)", "assay": "Patient-derived xenograft (PDX) mouse model, single mouse testing (SMT)", "format": "in vivo", "details": "50 mg/kg orally three times a week for four weeks", "procedure": "To assess the antitumor activity of AT-301 in a mouse model, a single mouse testing (SMT) experiment was used. SMT has 95% concordance with conventional testing and allows far greater inclusion of genetic/epigenetic heterogeneity. A patient-derived xenograft (PDX) mouse model (C.B.17 scid females (Envigo, IN)) of Ewing's sarcoma (EW13) was used in the SMT experiment. 50 mg/kg of AT-301 (formulated in 30% captisol) or just vehicle (30% captisol) was administered orally three times a week for four weeks."}, "[2]": {"biological_target": "T1, SMARCA2 (Homo sapiens, UniProt P51531)", "T1 construct": "The SMARCA2-1 gene (amino acids 437-1493) encompassing all domains; made in house; host or cells: expiSF9 insect cells (baculovirus, pFASTBac1)", "T1 sequence (P51531 437-1493)": "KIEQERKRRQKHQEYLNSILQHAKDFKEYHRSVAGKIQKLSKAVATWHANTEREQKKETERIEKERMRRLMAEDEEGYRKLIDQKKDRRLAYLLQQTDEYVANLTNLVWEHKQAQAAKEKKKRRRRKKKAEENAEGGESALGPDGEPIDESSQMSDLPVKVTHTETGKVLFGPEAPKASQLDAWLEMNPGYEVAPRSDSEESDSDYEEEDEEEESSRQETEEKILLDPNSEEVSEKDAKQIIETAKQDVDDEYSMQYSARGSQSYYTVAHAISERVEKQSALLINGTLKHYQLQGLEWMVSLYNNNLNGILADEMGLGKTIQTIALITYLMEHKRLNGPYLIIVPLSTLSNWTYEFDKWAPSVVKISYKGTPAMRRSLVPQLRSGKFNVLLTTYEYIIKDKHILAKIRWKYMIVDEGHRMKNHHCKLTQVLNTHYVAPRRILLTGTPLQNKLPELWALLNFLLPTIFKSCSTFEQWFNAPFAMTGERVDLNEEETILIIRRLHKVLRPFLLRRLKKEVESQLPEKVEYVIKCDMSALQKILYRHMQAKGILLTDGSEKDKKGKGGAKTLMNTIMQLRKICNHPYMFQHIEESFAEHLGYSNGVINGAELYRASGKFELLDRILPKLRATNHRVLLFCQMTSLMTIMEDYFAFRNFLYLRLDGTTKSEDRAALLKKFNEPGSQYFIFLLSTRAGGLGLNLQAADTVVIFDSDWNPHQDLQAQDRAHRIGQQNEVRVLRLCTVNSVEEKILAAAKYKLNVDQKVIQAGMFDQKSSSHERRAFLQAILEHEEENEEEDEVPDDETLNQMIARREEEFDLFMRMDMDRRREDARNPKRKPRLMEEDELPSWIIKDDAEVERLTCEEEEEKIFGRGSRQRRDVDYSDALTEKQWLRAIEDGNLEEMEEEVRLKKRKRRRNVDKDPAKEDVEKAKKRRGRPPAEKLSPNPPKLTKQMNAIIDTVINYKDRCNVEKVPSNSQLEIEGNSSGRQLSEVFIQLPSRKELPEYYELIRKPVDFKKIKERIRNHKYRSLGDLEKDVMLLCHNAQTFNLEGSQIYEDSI", "assay": "Secondary ATPase assay", "format": "biochemical", "procedure": "Exemplary compounds were evaluated for their ability to inhibit human SMARCA2 in ATPase assays as detailed in Table 2 below. Dose response curves for compound nos."}, "[3]": {"tested_on": "RH41 (rhabdomyosarcoma) cells", "assay": "Apoptosis, IncuCyte Caspase-3/7 green reagent", "format": "cell-based", "procedure": "(§1) Referring to FIG. 11A and FIG. 11B, RH4 (FIG. 11A) and ES3 (FIG. 11B) cells were treated with the indicated concentrations of BAF-X-1 or DMSO in triplicate and apoptosis was detected using the IncuCyte Caspase 3/7 green dye (Sartorius). Brightfield and green fluorescence images were captured every 2 hours from 4 fields per well on the IncuCyte live cell imager. The proportion of caspase positive (green) cells relative to % confluence of the well was calculated on the IncuCyte software and plotted against time. Referring to FIG. 11C and FIG. 11D, RH41 cells were treated with 7.5 μM AT-301 (FIG. 11D) or DMSO (FIG. 11C) for 24 hours, harvested with accutase, washed, and fixed in 70% ethanol. They were subsequently stained with propidium iodide/RNase and fluorescence was analyzed on BD flow cytometer. Resulting data was analyzed using FlowJo software.\n(§2) The medium was then replaced with fresh medium containing dilutions of the compound (AT-301) or DMSO (as a negative control), and 1× IncuCyte Caspase-3/7 green reagent (Sartorius) and proliferation/apoptosis was measured on IncuCyte live-cell imaging system. The treated cells were imaged every (2/4) hours and four fields from each well were imaged for analysis."}, "[4]": {"tested_on": "ES3 (Ewing's sarcoma) cells", "assay": "Apoptosis, IncuCyte Caspase-3/7 green reagent", "format": "cell-based", "procedure": "as §1, §2"}, "[5]": {"tested_on": "BAF complex in RH4 cells", "assay": "BAF complex assembly, size-exclusion chromatography of nuclear lysates and immunoblot", "format": "cell-based", "details": "7.5 μM AT-301", "text": "(§3) FIG. 12A-D show representative data illustrating that the assembly of BAF complex is perturbed by AT-301 inhibitor without perturbing oncogenic fusion protein levels. Referring to FIG. 12A and FIG. 12B, immunoblots of RH41 (FIG. 12A) and ES7 (FIG. 12B) cells after 4 and 12 hrs of treatment with AT-301 or DMSO. FOXO1 and FLI1 expression remains unchanged upon AT-301 treatment. Referring to FIG. 12C and FIG. 12D, gel filtration chromatography of ES3 (FIG. 12C) and RH41 (FIG. 12D) cell nuclear lysates after BAF-X-1 treatment are shown. Lysates were passed through a Sephacryl S-400 HR column and every fourth fraction was immuno-blotted for the proteins indicated with fraction numbers above the lanes.\n(§4) Next, whether AT-301 can perturb the assembly of BAF complex was evaluated using size-exclusion chromatography (SEC) method. Cells were cultured on 15 cm petri-dishes. Nuclei were extracted and lysed. A HiPrep 16/60 Sephacryl S-400 HR column (GE) was equilibrated with a running buffer and 4 mg of the lysate was loaded on to the column. Fractions of 1 mL were eluted at an elution rate of 0.8 mL/min. Eluted proteins were analyzed by concentrating and immunoblotting every fourth fraction."}, "[6]": {"tested_on": "BAF complex in ES3 cells", "assay": "BAF complex assembly, size-exclusion chromatography of nuclear lysates and immunoblot", "format": "cell-based", "details": "7.5 μM AT-301", "text": "as §3, §4"}, "[7]": {"biological_target": "SMARCAL1 (Homo sapiens, UniProt Q9NZC9)", "sequence (Q9NZC9 whole entry)": "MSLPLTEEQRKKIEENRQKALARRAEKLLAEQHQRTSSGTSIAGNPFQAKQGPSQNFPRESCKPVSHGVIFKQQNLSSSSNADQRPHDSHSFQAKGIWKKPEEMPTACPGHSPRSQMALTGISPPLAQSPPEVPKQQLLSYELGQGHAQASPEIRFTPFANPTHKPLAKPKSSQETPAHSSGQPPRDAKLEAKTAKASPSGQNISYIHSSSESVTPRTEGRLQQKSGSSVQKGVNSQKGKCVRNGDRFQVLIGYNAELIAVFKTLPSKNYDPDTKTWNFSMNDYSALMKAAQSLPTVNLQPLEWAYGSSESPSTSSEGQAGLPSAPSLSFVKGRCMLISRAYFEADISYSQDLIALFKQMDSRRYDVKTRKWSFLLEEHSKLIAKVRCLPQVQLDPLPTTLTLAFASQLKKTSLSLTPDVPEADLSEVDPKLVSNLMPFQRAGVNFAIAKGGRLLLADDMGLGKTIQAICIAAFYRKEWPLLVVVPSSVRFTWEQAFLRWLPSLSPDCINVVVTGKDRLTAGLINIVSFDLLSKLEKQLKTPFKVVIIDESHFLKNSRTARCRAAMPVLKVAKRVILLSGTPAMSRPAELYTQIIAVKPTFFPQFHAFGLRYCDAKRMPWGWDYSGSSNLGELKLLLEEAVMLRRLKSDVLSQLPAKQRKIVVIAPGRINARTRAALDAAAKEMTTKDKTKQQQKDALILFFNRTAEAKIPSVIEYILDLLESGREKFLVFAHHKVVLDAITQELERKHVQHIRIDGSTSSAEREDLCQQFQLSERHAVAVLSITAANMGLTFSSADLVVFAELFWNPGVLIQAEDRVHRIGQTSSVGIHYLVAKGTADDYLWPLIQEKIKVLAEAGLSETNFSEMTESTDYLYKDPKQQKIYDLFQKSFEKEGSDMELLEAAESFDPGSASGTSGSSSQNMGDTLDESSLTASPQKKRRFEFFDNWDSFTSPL", "assay": "Activity of other SWI/SNF ATPases not part of the BAF complex", "format": "biochemical", "details": "SWI/SNF ATPase not part of the BAF complex"}, "[8]": {"tested_on": "Ewing Sarcoma cell lines", "assay": "Growth of Ewing Sarcoma cell lines, live cell imaging (Incucyte S3) confluency", "format": "cell-based", "procedure": "Briefly, human SMARCA2 was purified, and a high-throughput screen (HTS) of 40,000 compounds was conducted. […] In brief, cells were grown in RPMI media supplemented with 10% Fetal bovine serum (FBS), 1× penicillin, and streptomycin antibiotics. Cells were placed in an incubator with 5% C02 and 50% humidity. When cells reached 90% confluency, cells were harvested, washed twice in 1×PBS, counted using trypan blue exclusion method. Then cells were seeded in 96-well plates (duplicates, n=2) at the density of 20,000 cells per well. Allowed them to attach to the bottom of the well for 1 to 2 hrs and treated with different concentration of AT-301 compound starting at highest concentration of 10 micromolar to serial dilution of the compound to the lowest concentration of 0.039 micromolar. Cells treated with only DMSO were also included as negative control. Cells were monitored for 72 hrs. by live cell imaging method (Incucyte S3) taking images every two hours. The confluency was determined and plotted against time (hours) by using Prism software."}, "[9]": {"tested_on": "FLI1 expression in ES7 cells", "assay": "Immunoblot of oncogenic transcription factor levels", "format": "cell-based", "details": "4 and 12 hrs of treatment", "text": "as §3, with “Lysates were passed through a Sephacryl S-400 HR column and every fourth fraction was immuno-blotted for the proteins indicated with fraction numbers above the lanes.” left out\n(§5) Next, whether the levels of oncogenic transcription factors in RH41 and ES7 cells change upon treatment with AT-301 was tested. Harvested cells were lysed in NP-40 lysis buffer (Thermo Scientific, J60766) supplemented with protease and phosphatase inhibitor (Halt Protease and phosphatase inhibitor cocktail (Thermo Scientific). Total protein was quantified using Bradford assay (Biorad), and 20 μg of it was denatured and separated on pre-cast tris-acetate or tris-glycine gels (Invitrogen). The protein was then transferred to nitrocellulose membranes (Cytiva) and subsequently probed using primary and secondary antibodies. The signal was detected using Clarity and Clarity Max ECL substrates (Biorad) and imaged on Biorad ChemiDoc)."}, "[10]": {"tested_on": "FOXO1 expression in RH41 cells", "assay": "Immunoblot of oncogenic transcription factor levels", "format": "cell-based", "details": "4 and 12 hrs of treatment", "text": "as §3, with “Lysates were passed through a Sephacryl S-400 HR column and every fourth fraction was immuno-blotted for the proteins indicated with fraction numbers above the lanes.” left out\nas §5"}}, "note": "“Also recorded” adds a separate entry of the source.", "data": [{"molecule": "Clc1ccc(CNc2nc(NC3CCCC3)nc3ccccc23)cc1Cl", "note": "[AT-301, N^2-cyclopentyl-N^4-(3,4-dichlorobenzyl)quinazoline-2,4-diamine]", "values": [{"measurement": "Tumor growth", "setting": "[1]; 30% captisol, EW13 PDX in C.B.17 scid females", "value": "completely suppressed the tumor growth"}, {"measurement": "Body weight", "setting": "[1]; EW13 PDX mouse", "value": "without any apparent loss in body weight"}, {"measurement": "IC50", "setting": "[2]", "value": "~5", "unit": "µM"}, {"measurement": "Apoptosis (caspase 3/7)", "setting": "[3]", "value": "induces apoptosis"}, {"measurement": "Apoptosis (caspase 3/7)", "setting": "[4]", "value": "induces apoptosis"}, {"measurement": "Assembly of BAF complexes", "setting": "[5]", "value": "perturbed assembly"}, {"measurement": "Assembly of BAF complexes", "setting": "[6]", "value": "perturbed assembly"}, {"measurement": "Inhibition of activity of SMARCAL1", "setting": "[7]", "value": "fails to inhibit"}, {"measurement": "IC50", "setting": "[8]; 8 different Ewing Sarcoma cell lines, 72 hrs live cell imaging", "value": "~5", "unit": "µM"}, {"measurement": "Growth of Ewing Sarcoma cell lines", "setting": "[8]; live cell imaging, confluency", "value": "attenuate the growth; also recorded: strongly attenuated the growth"}, {"measurement": "Expression of oncogenic transcription factor (FLI1)", "setting": "[9]", "value": "does not alter the expression"}, {"measurement": "Expression of oncogenic transcription factor (FOXO1)", "setting": "[10]", "value": "does not alter the expression"}]}]}
